What was measured:
MC3T3-E1 cells [1] = system: MC3T3-E1 cells
MC3T3-E1 cells [2] = assay: Dephosphorylation of probe compounds on cell-cultured CDHA (fluorescence images, radiant efficiency); type: cell-based; settings: CDHA specimen cultured with cells, treated with probe; diffused ALP hydrolysis increased over time in MC3T3-E1 cells
Method: In order to confirm the dephosphorylation of the fluorescent probe compounds by ALP or pH change on CDHA, three bare CDHA specimens and three CDHA specimens cultured with MC3T3-E1 cells and Raw264.7 cells were prepared, the results of examining fluorescence images obtained by treating, the three specimens, one of which was treated with the bone-forming activity marker-sensitive fluorescent probe compound of Synthetic Example 1, another of which was treated with the bone-resorbing activity marker-sensitive fluorescent probe compound of Synthetic Example 2, and the remaining one of which was treated with both the bone-forming activity marker-sensitive fluorescent probe compound and the bone-resorbing activity marker-sensitive fluorescent probe compound, were illustrated in FIG. 11, and the results of measuring fluorescence efficiency (radiant efficiency) in each of six specimens were illustrated in FIGS. 12A and 12B.

Compound | cell proliferation (%) (Raw264.7 cells) | cell proliferation (%) (MC3T3-E1 cells [1]) | fluorescence signal (radiant efficiency) (MC3T3-E1 cells [2])
calcium deficient hydroxyapatite [CDHA] | ~170 | ~170 | 
CC1(C)C(/C=C/C2=C3Oc4cc(OCc5ccc(OP(=O)(O)O)cc5)ccc4C=C3CCC2)=[N+](CCCCC(=O)NCCCC(O)(P(=O)(O)O)P(=O)(O)O)c2ccccc21 [compound 1-7] |  |  | high fluorescence signal

— patent US20260232846A1, “FLUORESCENT PROBE COMPOUND AND COMPOSITE COMPRISING SAME” (KOREA RESEARCH INSTITUTE OF BIOSCIENCE AND BIOTECHNOLOGY, priority 2022, published 2026)
